# Experimental data taken from US20240390438A1, “PROBIOTICS SEPARATED FROM RABBIT FECES AND FOOD CONTAINING PROBIOTICS” (AGENT Innovation Co., Ltd., priority 2021, published 2024).
# Legend:
# Shigella sonnei [1] = test: Agar diffusion method-2 (cell-free solution); assay type: cell-based; conditions: colonies as cell-free solution in holes of TSA; ddH2O control 8
# Experimental: (§1) Firstly, the CFSs (containing metabolites) were prepared. Besides, when probiotics break down fiber and convert the fiber into metabolites, the metabolites are postbiotics.
# (§2) Next, the pathogenic bacteria described above were also cultured with 37° C. until the concentration thereof reached 1×10^8 CFU/mL, respectively. 100 μL bacterial solutions of the pathogenic bacteria described above were evenly plated on Tryptone Soy Agar (TSA) and stay for 10 minutes. Then, tips were used to form several holes in the TSA. Subsequently, 100 μL bacterial solutions of the colonies described above were added into the holes and then cultured at 37° C. for 12 hours.
# (§3) This experiment is designed that the CFSs in the holes prevent the pathogenic bacteria on the plates from growing. Therefore, the larger zone indicates the better antibacterial effect.
# Bacillus cereus [2] = test: Agar diffusion method-2 (cell-free solution); assay type: cell-based; conditions: colonies as cell-free solution in holes of TSA; ddH2O control 8
# Experimental: as §1, §2, §3
# Escherichia coli (ETEC) [3] = test: Agar diffusion method-2 (cell-free solution); assay type: cell-based; conditions: colonies as cell-free solution in holes of TSA; ddH2O control 8
# Experimental: as §1, §2, §3
# Salmonella enterica [4] = test: Agar diffusion method-2 (cell-free solution); assay type: cell-based; conditions: colonies as cell-free solution in holes of TSA; ddH2O control 8
# Experimental: as §1, §2, §3
# Pseudomonas aeruginosa [5] = test: Agar diffusion method-2 (cell-free solution); assay type: cell-based; conditions: colonies as cell-free solution in holes of TSA; ddH2O control 8
# Experimental: as §1, §2, §3
# Klebsiella pneumoniae [6] = test: Agar diffusion method-2 (cell-free solution); assay type: cell-based; conditions: colonies as cell-free solution in holes of TSA; ddH2O control 8
# Experimental: as §1, §2, §3
# Staphylococcus aureus [7] = test: Agar diffusion method-2 (cell-free solution); assay type: cell-based; conditions: colonies as cell-free solution in holes of TSA; ddH2O control 8
# Experimental: as §1, §2, §3
# Streptococcus pneumoniae [8] = test: Agar diffusion method-2 (cell-free solution); assay type: cell-based; conditions: colonies as cell-free solution in holes of TSA; ddH2O control 8
# Experimental: as §1, §2, §3
# Shigella sonnei [9] = test: Minimum inhibitory concentration and minimum bacterial concentration; assay type: cell-based; conditions: antibiotics
# Experimental: (§4) Minimum inhibitory concentration (MIC) refers to the minimum concentration at which the development of bacteria can be blocked and antibacterial resistance can be observed after cultured. The lower MIC means the better effect on bacteria.
# (§5) The supernatants of the cultured colonies described above were collected, as cell-free solutions (CFSs), by centrifuge at 5000 rpm after cultured the colonies in a nutrient broth and shaking at 37° C. for 48 hours.
# (§6) Next, 100 μL each of the CFSs and 100 μL bacterial solutions of the pathogenic bacteria were respectively added to each well of a 96-well plate. Thus, the total volume in each well was 200 μL. The tested pathogenic bacteria included Salmonella enterica, Shigella sonnei, Klebsiella pneumoniae, Streptococcus pneumoniae, Bacillus cereus, Staphylococcus aureus, Pseudomonas aeruginosa, and Escherichia coli.
# (§7) As well, 100 μL each of the nutrient broth containing Ampicillin or Kanamycin and 100 μL bacterial solutions of the pathogenic bacteria were respectively added to each well of a 96-well plate. Thus, the total volume in each well was 200 μL.
# (§8) Then, initial values of OD600 in each well were recorded. Subsequently, the 96-well plates were cultured at 37° C. for 24 hours, and the OD600 values thereof were re-recorded for determining the MICs of each colony described above.
# (§9) Finally, 100 μL CFSs of the next three concentrations […] MIC were taken to be plated on nutrient agar and then cultured at 37° C. for 48-72 hours. The concentrations of the CFSs that no colonies grown on nutrient agar were determined to be the minimum bacterial concentration (MBCs).
# Bacillus cereus [10] = test: as above; assay type: cell-based; conditions: antibiotics
# Experimental: as §4, §5, §6, §7, §8, §9
# Escherichia coli (ETEC) [11] = test: as above; assay type: cell-based; conditions: antibiotics
# Experimental: as §4, §5, §6, §7, §8, §9
# Pseudomonas aeruginosa [12] = test: as above; assay type: cell-based; conditions: antibiotics
# Experimental: as §4, §5, §6, §7, §8, §9
# Klebsiella pneumoniae [13] = test: as above; assay type: cell-based; conditions: antibiotics
# Experimental: as §4, §5, §6, §7, §8, §9
# Staphylococcus aureus [14] = test: as above; assay type: cell-based; conditions: antibiotics
# Experimental: as §4, §5, §6, §7, §8, §9
# Streptococcus pneumoniae [15] = test: as above; assay type: cell-based; conditions: antibiotics
# Experimental: as §4, §5, §6, §7, §8, §9
# Salmonella enterica [16] = test: as above; assay type: cell-based
# Experimental: Finally, 100 μL CFSs of the next three concentrations below MIC were taken to be plated on nutrient agar and then cultured at 37° C. for 48-72 hours. The concentrations of the CFSs that no colonies grown on nutrient agar were determined to be the minimum bacterial concentration (MBCs).
# Colony PTA22 = test: Antibiotic susceptibility test; assay type: cell-based, Lactiplantibacillus Plantarum
# Text: (§10) To test bacterial susceptibility to antibiotics, such as Aminoglycosides antibiotics, Sulfonamide antibiotics, Quinolone antibiotics, Ampicillin, Cefotaxime, Chloramphenicol, Erythromycin, Rifampicin and Tetracycline, the experimental protocol were as follow. Further, the Quinolone antibiotics comprise Ciprofloxacin, the Aminoglycosides antibiotics comprise Kanamycin and […], and the Sulfonamide antibiotics comprise Sulfamethoxazole. […] The initial absorbance at 600 nm (OD600) of each well was recorded. Then, the 96-well plates were placed at 37° C. and cultured for 24 hours. Next, the OD600 of each well was measured again to determine minimum inhibitory concentration.
# Colony LP1 = test: Antibiotic susceptibility test; assay type: cell-based, Lactiplantibacillus Plantarum
# Text: as §10
# Colony LP2 = test: Antibiotic susceptibility test; assay type: cell-based, Lactiplantibacillus Plantarum; conditions: 96-well, 37 C 24 h, OD600
# Text: as §10
# Colony LP5 = test: Antibiotic susceptibility test; assay type: cell-based, Lactiplantibacillus Plantarum
# Text: as §10
# Colony LP19 = test: Antibiotic susceptibility test; assay type: cell-based, Lactiplantibacillus Plantarum
# Text: as §10
# [17] = plated on nutrient agar 48-72 h
structure (smiles),measurement,setting,value
NC[C@H]1O[C@H](O[C@H]2[C@H](O)[C@@H](O[C@H]3O[C@H](CO)[C@@H](O)[C@H](N)[C@H]3O)[C@H](N)C[C@@H]2N)[C@H](O)[C@@H](O)[C@@H]1O [Kanamycin],"Inhibitory zone, Shigella Sonnei",Shigella sonnei [1],20 mm
same,"Inhibitory zone, Bacillus Cereus",Bacillus cereus [2],20 mm
same,"Inhibitory zone, Escherichia coli (ETEC)",Escherichia coli (ETEC) [3],17 mm
same,"Inhibitory zone, Salmonella Enterica",Salmonella enterica [4],16 mm
same,"Inhibitory zone, Pseudomonas Aeruginosa",Pseudomonas aeruginosa [5],20 mm
same,"Inhibitory zone, Klebsiella Pneumoniae",Klebsiella pneumoniae [6],20 mm
same,"Inhibitory zone, Staphylococcus Aureus",Staphylococcus aureus [7],23 mm
same,"Inhibitory zone, Streptococcus Pneumoniae",Streptococcus pneumoniae [8],20 mm
same,MIC,"Shigella sonnei [9]; 37 C 24 h, OD600",16 µg/mL
same,MBC,Shigella sonnei [9]; [17],64 µg/mL
same,MIC,"Bacillus cereus [10]; 37 C 24 h, OD600",256 µg/mL
same,MBC,Bacillus cereus [10]; [17],> 256 µg/mL
same,MIC,"Escherichia coli (ETEC) [11]; 37 C 24 h, OD600",64 µg/mL
same,MBC,Escherichia coli (ETEC) [11]; [17],128 µg/mL
same,MIC,"Pseudomonas aeruginosa [12]; 37 C 24 h, OD600",8 µg/mL
same,MBC,Pseudomonas aeruginosa [12]; [17],16 µg/mL
same,MIC,"Klebsiella pneumoniae [13]; 37 C 24 h, OD600",32 µg/mL
same,MBC,Klebsiella pneumoniae [13]; [17],64 µg/mL
same,MIC,"Staphylococcus aureus [14]; 37 C 24 h, OD600",4 µg/mL
same,MBC,Staphylococcus aureus [14]; [17],8 µg/mL
same,MIC,"Streptococcus pneumoniae [15]; 37 C 24 h, OD600",8 µg/mL
same,MBC,Streptococcus pneumoniae [15]; [17],16 µg/mL
same,MIC,"Salmonella enterica [16]; 24 h, read-out: MIC, Salmonella Enterica",64 µg/mL
same,MBC,"Salmonella enterica [16]; antibiotics, plated on nutrient agar 48-72 h",128 µg/mL
same,Minimum inhibitory concentration of the antibiotic to PTA22,"Colony PTA22; 96-well, 37 C 24 h, OD600",>256 µg/mL
same,MIC,"Colony PTA22; Lactiplantibacillus plantarum, PTA22, 24 h, read-out: Minimum inhibitory concentration of the antibiotic to PTA22, 96-well, 37 C 24 h, OD600",> 256 µg/mL
same,Minimum inhibitory concentration of the antibiotic to LP1,"Colony LP1; 96-well, 37 C 24 h, OD600",>256 µg/mL
same,MIC,"Colony LP1; Lactiplantibacillus plantarum, LP1, 24 h, read-out: Minimum inhibitory concentration of the antibiotic to LP1, 96-well, 37 C 24 h, OD600",> 256 µg/mL
same,Minimum inhibitory concentration of the antibiotic to LP2,Colony LP2,>256 µg/mL
same,MIC,"Colony LP2; Lactiplantibacillus plantarum, LP2, 24 h, read-out: Minimum inhibitory concentration of the antibiotic to LP2",> 256 µg/mL
same,Minimum inhibitory concentration of the antibiotic to LP5,"Colony LP5; 96-well, 37 C 24 h, OD600",>256 µg/mL
same,MIC,"Colony LP5; Lactiplantibacillus plantarum, LP5, 24 h, read-out: Minimum inhibitory concentration of the antibiotic to LP5, 96-well, 37 C 24 h, OD600",> 256 µg/mL
same,Minimum inhibitory concentration of the antibiotic to LP19,"Colony LP19; 96-well, 37 C 24 h, OD600",>256 µg/mL
same,MIC,"Colony LP19; Lactiplantibacillus plantarum, LP19, 24 h, read-out: Minimum inhibitory concentration of the antibiotic to LP19, 96-well, 37 C 24 h, OD600",> 256 µg/mL
